The text below walks through data of PubChem BioAssay (NCI).

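Protocol summary: plate cells (96-well), add compound at 5 concentrations, incubate 48 h, interpolate endpoints linearly. TGI denotes the concentration required for complete inhibition of growth.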

What all share (assay): NCI tumour cell line growth inhibition, 48 h
The test system of experiment [1] is OVCAR-5 ovarian.
The subject of experiment [2] is PC-3 prostate.
The test system of experiment [3] is SF-268 CNS.
Experiment [4] deals with SK-MEL-5 melanoma.
For experiment [5], the system named is HCC-2998 colon.
Experiment [6] deals with MCF7 breast.
In experiment [7] the test system is OVCAR-3 ovarian.
Experiment [8] relates to UACC-257 melanoma.
Experiment [9] relates to OVCAR-8 ovarian.
Experiment [10] concerns SF-295 CNS.
Experiment [11] has as its system SK-MEL-28 melanoma.
Experiment [12] concerns K-562 leukemia.
The subject of experiment [13] is T-47D breast.
The subject of experiment [14] is MDA-MB-231 breast.
Experiment [15] concerns SK-MEL-2 melanoma.
The test system of experiment [16] is SN12C renal.
Experiment [17] concerns HS 578T breast.
Experiment [18] has as its system HT29 colon.
The test system of experiment [19] is DU-145 prostate.
Experiment [20] deals with HOP-92 NSCLC.

`Cc1cc2nc3c(C#N)c(-c4ccccc4)cc(Nc4cccc(C(F)(F)F)c4)n3c2cc1C`: the TGI in experiment [1] worked out at 47.1 µM; in experiment [2] it was 16 µM; in [3], 61.2 µM; in experiment [4] it was 19.8 µM; in experiment [5], 14.3 µM; in experiment [6], 22.5 µM. The TGI in experiment [7] is 8.41 µM; in [8] it was 54.3 µM; in experiment [9], > 100 µM; in [10] it was 44.6 µM; in experiment [11], 50.6 µM; in experiment [12], 1.2 µM. Also, the TGI in [13] is > 100 µM; in [14], 16.2 µM; in experiment [15], 12.7 µM; in [16] it was 25.2 µM.
In the case of `O=C(NC1CCN(Cc2ccccc2)CC1)c1ccccc1I`, the TGI in experiment [1] is 58 µM; in [17], 50.2 µM; in experiment [2] it was 98.8 µM; in experiment [3] it was > 100 µM; in experiment [18], 34.8 µM; in [4], 31 µM. The TGI in [7] is > 100 µM; in experiment [8] it was 38 µM; in experiment [9], > 100 µM; in [10], 36.9 µM; in experiment [11], 36.5 µM; in [12], > 100 µM. Also, the TGI was > 100 µM in experiment [19]; 92.4 µM in experiment [20]; 66.1 µM in experiment [13]; 41.1 µM in experiment [14]; 48.7 µM in [15]; > 100 µM in experiment [16].
With `Cc1c(C)c2ccc(O)cc2[nH]c1=O`, the TGI in experiment [1], in experiment [2], in [18], in experiment [4], in experiment [5] and in experiment [6] was > 100 µM in each case. Moreover, the TGI in experiment [7], in experiment [8], in experiment [9], in experiment [10], in experiment [11] and in experiment [12] was > 100 µM throughout. Further, the TGI in [19], in experiment [20], in [13], in experiment [14], in experiment [15] and in experiment [16] was > 100 µM throughout.
`CC(C)(Cc1ccccc1)Cc1cc(O)ccc1O`: the TGI was 88.8 µM in experiment [1]; > 100 µM in experiment [2]; 35.7 µM in experiment [3]; 48.5 µM in experiment [18]; 39.1 µM in experiment [5]; 86.5 µM in [6]. Moreover, the TGI in experiment [7] worked out at 25.3 µM; in experiment [8] it was 29.5 µM; in experiment [9] it was 40.7 µM; in [10], 73.5 µM; in [11], 47.2 µM; in experiment [12], 44.2 µM. The TGI in experiment [19] is > 100 µM; in [20] it was 36.5 µM; in [13], 23.1 µM; in [14], 39.2 µM; in experiment [16], 41.3 µM.
Consider `Oc1ccc2c3c1OC1c4[nH]c5c(c4CC4(O)C(C2)N(CC2CC2)CC[C@]314)CC1(O)C2Cc3ccc(O)c4c3[C@@]1(CCN2CC1CC1)C5O4` (stereo partly specified), for which the TGI in experiment [1] is 74.9 µM; in experiment [2], > 100 µM; in experiment [3], 49.4 µM; in [18], 38.3 µM; in experiment [4] it was > 100 µM; in experiment [5], 36.7 µM. The TGI was > 100 µM in experiment [6]; 35.8 µM in experiment [7]; 37.4 µM in [8]; > 100 µM in experiment [9]; 40 µM in experiment [10]; 41.4 µM in experiment [11]. Moreover, the TGI in experiment [12] is 63.9 µM; in experiment [19] it was > 100 µM; in [20] it was 85 µM; in experiment [13] it was 47.6 µM; in experiment [14], 46.1 µM; in experiment [15] it was 44.8 µM. For the same compound, the TGI in experiment [16] was > 100 µM.
As for `C[C@]12CCC(=O)C=C1CC[C@@H]1[C@@H]2CC[C@]2(C)C(=O)/C(=C\c3ccccc3)C[C@@H]12`, the TGI is > 100 µM in [1]; > 53.3 µM in experiment [2]; > 100 µM in experiment [18]; > 48.6 µM in experiment [4]; 35.9 µM in [5]; > 56.1 µM in [6]. Further, the TGI in experiment [7] was > 77.1 µM; in experiment [8], > 100 µM; in experiment [9], > 100 µM; in experiment [10], > 80.3 µM; in experiment [11], > 81.4 µM; in [12], > 100 µM. In addition, the TGI in experiment [19] was > 100 µM; in experiment [20], > 86.8 µM; in experiment [13] it was > 86.7 µM; in experiment [14], > 100 µM; in experiment [15], 46.1 µM; in [16] it was 31.9 µM.
